# Experiments:
# [1] = target: T1, ileal bile acid active uptake system (Rattus norvegicus, UniProt Q62633); assay: In vivo inhibition of bile acid reabsorption (75SeHCAT, rat); conditions: male Spraque-Dawley rats, oral gavage twice daily for two days, fecal 75SeHCAT over 24 hours, n=12 total
# T1 construct: from tissue; host or cells: whole animal (rat ileum, in vivo)
# T1 sequence (Q62633 1-348): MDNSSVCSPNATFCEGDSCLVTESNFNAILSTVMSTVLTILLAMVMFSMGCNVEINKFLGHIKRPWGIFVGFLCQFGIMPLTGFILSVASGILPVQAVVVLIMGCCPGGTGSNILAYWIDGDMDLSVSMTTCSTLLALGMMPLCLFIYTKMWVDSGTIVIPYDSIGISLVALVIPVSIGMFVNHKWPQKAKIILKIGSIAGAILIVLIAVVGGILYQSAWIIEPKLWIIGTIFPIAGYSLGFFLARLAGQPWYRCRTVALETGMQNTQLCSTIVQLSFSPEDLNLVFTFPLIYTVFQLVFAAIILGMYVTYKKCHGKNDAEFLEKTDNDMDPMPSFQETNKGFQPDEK
# Procedure: (I) In vivo Inhibition of Bile Acid Reabsorption
# Male Spraque-Dawley rats (CD, Charles River) weighing 220-260 gm were housed in individual cages and fed normal chow. The rats were dosed by oral gavage (1 ml/100 gm body weight) with test compounds as a suspension in 0.5% methylcellulose at 9:00 a.m. and 3:30 p.m. for two days. The control group received 0.5% methylcellose. Two hours after the morning dose on day two, the rats were given a trace amount (1.3 nmoles) of 23,25−^75Se-homocholic acid taurine (^75SeHCAT) in 1.0 ml saline orally. ^75SeHCAT, a synthetic gamma emitting bile acid analog which is absorbed by the ileal bile acid active uptake system similar to taurocholic acid, has been used clinically as a measure of ileal bile acid absorption. Feces were collected over the 24 hours following ^75SeHCAT administration. Fecal content of ^75SeHCAT was determined using a Packard Auto-Gamma 5000 Series gamma-counter. The % inhibition of bile acid reabsorption is calculated as follows: [formula]
# The percent of inhibition of bile acid reabsorption in the rat using ^75SeHCAT was used to determine the ED30 (the dose required to give 30% inhibition of bile acid uptake). […]
# male Spraque-Dawley rats = assay: Percent cholesterol lowering in rats fed a cholesterol-cholic acid enriched diet; format: in vivo, rat; conditions: gavage b.i.d. for 3 days and once on day four, hypercholesterolemic rats, serum lipids four hours after last dose
# Procedure: (II) Percent Cholesterol Lowering in Rats
# Hypercholesterolemia was induced in male Spraque-Dawley rats (CD, Charles River weighing 200-300 g) by administration of a diet enriched in cholesterol and cholic acid. The diet was prepared from Wayne Laboratory Lab Blocks ground into meal and mechanically mixed with powdered cholesterol and cholic acid to a final concentration (by weight) of 1% and 0.5%, respectively. Prior to administration of the diet, blood was collected under halothane anesthesia by cardiac puncture to determine baseline lipid levels. Serum was obtained for analysis of total cholesterol (TC), high density lipoprotein cholesterol (HDL-C), and dextran-precipitable lipoprotein-cholesterol (VLDL+LDL). The rats were divided into groups so that each group had similar baseline serum lipid levels. Five days following the initial sampling for serum lipids the rats were fed ab lib the cholesterol-cholic acid enriched diet and compound administration was begun. The compound was administered by gavage as a suspension in 0.5% methylcellulose (1 ml/100 g body weight) b.i.d. at 9:00 a.m. and 3:00 p.m. for 3 days and at 9:00 a.m. on day four. Control animals received 0.5% methylcellulose only. The rats were bleed four hours after the last dose for the determination of serum lipids. All blood collections were done after a 4-h fast. Serum TC concentrations were determined enzymatically using reagents obtained from Seragen Diagnostics (2). Serum HDL-C was determined after selective precipitation of VLDL and LDL with dextran sulfate and magnesium sulfate, with reagents from Seragen (3). HDL-C was determined in the supernatant. VLDL+LDL cholesterol was determined as the difference between total and HDL-C. The following results were obtained for Example 1 and Example A, as defined above.
ED30 (the dose required to give 30% inhibition of bile acid uptake) [1],melting point,Structure (SMILES),Percent cholesterol lowering (male Spraque-Dawley rats; dose 0.03 mg/kg),Percent cholesterol lowering (male Spraque-Dawley rats; dose 0.1 mg/kg),Percent cholesterol lowering (male Spraque-Dawley rats; dose 0.3 mg/kg)
0.048 mg/kg,179.6 to 180.2 °C,"CCCC[C@@]1(CC)CN(c2ccccc2)c2cc(Cl)c(O)cc2S(=O)(=O)C1 [Example 1, (3S)-2,3,4,5-Tetrahydro-3-ethyl-3-butyl-5-phenyl-7-chloro-8-hydroxy-1,5-benzothiazepine-1,1-dioxide]",48%,56%,81%
0.17 mg/kg,,"CCCCC1(CC)CN(c2ccccc2)c2cc(Br)c(O)cc2S(=O)(=O)C1 (stereo not drawn) [Example A, 2,3,4,5-tetrahydro-3-ethyl-3-butyl-5-phenyl-7-bromo-8-hydroxy-1,5-benzothiazepine-1,1-dioxide, reference compound]",14%,17%,53%

# — patent US6465451B1, “Hypolipidemic benzothiazepine compounds” (SmithKline Beecham Corporation, priority 1998, dated 2002)
